Converted amounts (≈) assume the structure as drawn. Like-named read-outs stand apart in the source and are kept apart here.
Legend:
Experiment in all cases: In vitro antimicrobial activity, MIC by broth microdilution (CLSI)
Type in all cases: cell-based
[1] = test system: A. baumannii JMI7; conditions: Acinetobacter baumannii
Procedure: (§1) Compound (I) of the invention was evaluated for in vitro antimicrobial activity thereof.
(§2) Measurement of Minimum Inhibitory Concentration (MIC: μg/mL) was conducted according to CLSI (Clinical and Laboratory Standards Institute) method, and the amount of bacteria for inoculation was 5×10^5 cfu/mL, and cation-adjusted Iso-Sensitest broth containing human Apo-transferrin was used as a test medium, and the experiment was conducted using broth microdilution method. The bacteria used are listed below.

[2] = test system: K. pneumoniae SR01358; conditions: Klebsiella pneumoniae
Procedure: as §1, §2

[3] = test system: E. Coli JMI1890; conditions: Escherichia coli, read-out: Minimum Inhibitory Concentration (MIC) E. Coli JMI:1890
Procedure: as §1, §2

[4] = test system: A. baumannii JMI2346; conditions: Acinetobacter baumannii
Procedure: as §1, §2

[5] = JMI7, PER-1, OXA-23, 51, ESBL and OXA-type carbapenemase producing strain, 5×10^5 cfu/mL, cation-adjusted Iso-Sensitest broth containing human Apo-transferrin, read-out: Minimum Inhibitory Concentration (MIC) A. baumannii JMI:7
[6] = SR01358, KPC-2, ESBL and KPC-type carbapenemase producing strain, 5×10^5 cfu/mL, cation-adjusted Iso-Sensitest broth containing human Apo-transferrin, read-out: Minimum Inhibitory Concentration (MIC) K. pneumoniae SR01358
[7] = PER-1, TEM-1, ESBL producing strain, 5×10^5 cfu/mL, cation-adjusted Iso-Sensitest broth containing human Apo-transferrin
[8] = JMI2346, OXA-51, TEM, ESBL and OXA-type carbapenemase producing strain, 5×10^5 cfu/mL, cation-adjusted Iso-Sensitest broth containing human Apo-transferrin, read-out: Minimum Inhibitory Concentration (MIC) A. baumannii JMI:2346

| MIC [1, 5] [µg/mL] | MIC [2, 6] [µg/mL] | MIC [3, 7] [µg/mL] | MIC [4, 8] [µg/mL] | Structure (SMILES) | MIC ([1]; JMI7, read-out: Minimum Inhibitory Concentration (MIC) A. baumannii JMI:7) [µg/mL] | MIC ([2]; SR01358, read-out: Minimum Inhibitory Concentration (MIC) K. pneumoniae SR01358) [µg/mL] | MIC [3] [µg/mL] | MIC ([4]; JMI2346, read-out: Minimum Inhibitory Concentration (MIC) A. baumannii JMI:2346) [µg/mL] |
| --- | --- | --- | --- | --- | --- | --- | --- | --- |
| 0.5 | ≤ 0.031 | ≤ 0.031 | 1 | C[C@@H]1S[C@@H]2[C@H](NC(=O)/C(=N\OC(C)(C)C(=O)[O-])c3csc(N)n3)C(=O)N2C(C(=O)[O-])=C1C[N+]12CCC(Cn3[nH]c(=O)c4cc(O)c(O)cc4c3=O)(CC1)C2.[Na+] [Compound I-180] | – | – | – | – |
| 1 | ≤ 0.031 | 2 | 16 | C[C@@H]1S[C@@H]2[C@H](NC(=O)/C(=N\OC(C)(C)C(=O)[O-])c3csc(N)n3)C(=O)N2C(C(=O)[O-])=C1C[N+]1(CCNC(=O)C(=O)c2cc(O)c(O)c(F)c2)CCCC1.[Na+] [Compound I-84] | – | – | – | – |
| 1 | ≤ 0.031 | 0.25 | 8 | C[C@@H]1S[C@@H]2[C@H](NC(=O)/C(=N\OC(C)(C)C(=O)[O-])c3csc(N)n3)C(=O)N2C(C(=O)[O-])=C1C[N+]1(C)C[C@H]2CN(C(=O)c3cc(O)c(O)c(F)c3)C[C@H]2C1.[Na+] (stereo partly drawn) [Compound I-69] | – | – | – | – |
| 1 (≈ 1.2 µM) | ≤ 0.031 | 0.125 (≈ 0.15 µM) | 1 (≈ 1.2 µM) | CO/N=C(\C(=O)NCC12CC[N+](CC3=C(C(=O)O)N4C(=O)[C@@H](NC(=O)/C(=N\OC(C)(C)C(=O)[O-])c5csc(N)n5)[C@H]4S[C@H]3C)(CC1)C2)c1ccc(O)c(O)c1Cl [Compound I-104] | – | – | – | – |
| 0.5 | ≤ 0.031 | 0.125 | 2 | C[C@@H]1S[C@@H]2[C@H](NC(=O)/C(=N\OC(C)(C)C(=O)[O-])c3csc(N)n3)C(=O)N2C(C(=O)[O-])=C1C[N+]12CCC(CC1)N(C(=O)c1cc(O)c(O)c(Cl)c1)CC2.[Na+] [Compound I-65] | – | – | – | – |
| 0.25 | ≤ 0.031 | 0.125 | 4 | C[C@@H]1S[C@@H]2[C@H](NC(=O)/C(=N\OC(C)(C)C(=O)[O-])c3csc(N)n3)C(=O)N2C(C(=O)[O-])=C1C[N+]12CCC(CC1)N(C(=O)C(=O)c1ccc(O)c(O)c1Cl)CC2.[Na+] [Compound I-75] | – | – | – | – |
| 0.5 (≈ 0.622 µM) | ≤ 0.031 | ≤ 0.031 | 1 (≈ 1.24 µM) | C[C@@H]1S[C@@H]2[C@H](NC(=O)/C(=N\OC(C)(C)C(=O)O)c3csc(N)n3)C(=O)N2C(C(=O)[O-])=C1C[N+]12CCC(Cn3cnc4cc(O)c(O)c(Cl)c4c3=O)(CC1)C2 [Compound I-165, (4S,6R,7R)-7-((Z)-2-(2-aminothiazol-4-yl)-2-(((2-carboxypropan-2-yl)oxy)imino)acetamido)-3-((4-((5-chloro-6,7-dihydroxy-4-oxoquinazolin-3(4H)-yl)methyl)-1-azabicyclo[2.2.1]heptan-1-ium-1-yl)methyl)-4-methyl-8-oxo-5-thia-1-azabicyclo[4.2.0]oct-2-ene-2-carboxylate] | – | – | – | – |
| 0.5 | 0.25 | ≤ 0.031 | 1 | C[C@@H]1S[C@@H]2[C@H](NC(=O)/C(=N\OC(C)(C)C(=O)[O-])c3csc(N)n3)C(=O)N2C(C(=O)[O-])=C1C[N+]12CCC(CNC(=O)c3cc(O)c(O)c(F)c3)(CC1)C2.[Na+] [Compound I-117] | – | – | – | – |
| 0.5 (≈ 0.572 µM) | ≤ 0.031 | 1 (≈ 1.14 µM) | 8 (≈ 9.16 µM) | C[C@@H]1S[C@@H]2[C@H](NC(=O)/C(=N\OC(C)(C)C(=O)[O-])c3csc(N)n3)C(=O)N2C(C(=O)O)=C1C[N+]1(CCNC(=O)c2cn(C3CC3)c3cc(O)c(O)c(Cl)c3c2=O)CCCC1 [Compound I-90] | – | – | – | – |
| 0.5 (≈ 0.648 µM) | 0.063 (≈ 0.0816 µM) | 0.5 (≈ 0.648 µM) | 2 (≈ 2.59 µM) | C[C@@H]1S[C@@H]2[C@H](NC(=O)/C(=N\OC(C)(C)C(=O)[O-])c3csc(N)n3)C(=O)N2C(C(=O)O)=C1C[N+]1(CCN2C(=O)c3ccc(O)c(O)c3C2=O)CCCCC1 [Compound I-42] | – | – | – | – |
| 0.25 | ≤ 0.031 | ≤ 0.031 | 1 | C[C@@H]1S[C@@H]2[C@H](NC(=O)/C(=N\OC(C)(C)C(=O)[O-])c3csc(N)n3)C(=O)N2C(C(=O)[O-])=C1C[N+]12CCC(CN3C(=O)c4cc(O)c(O)cc4C3=O)(CC1)C2.[Na+] [Compound I-116] | – | – | – | – |
| 0.5 (≈ 0.65 µM) | ≤ 0.031 | ≤ 0.031 | 2 (≈ 2.6 µM) | C[C@@H]1S[C@@H]2[C@H](NC(=O)/C(=N\OC(C)(C)C(=O)O)c3csc(N)n3)C(=O)N2C(C(=O)[O-])=C1C[N+]12CCC(Cn3cnc4cc(O)c(O)cc4c3=O)(CC1)C2 [Compound I-164, (4S,6R,7R)-7-((Z)-2-(2-aminothiazol-4-yl)-2-(((2-carboxypropan-2-yl)oxy)imino)acetamido)-3-((4-((6,7-dihydroxy-4-oxoquinazolin-3(4H)-yl)methyl)-1-azabicyclo[2.2.1]heptan-1-ium-1-yl)methyl)-4-methyl-8-oxo-5-thia-1-azabicyclo[4.2.0]oct-2-ene-2-carboxylate] | – | – | – | – |

The remaining lines, values behind:

| Structure (SMILES) | MIC [1, 5] [µg/mL] | MIC [2, 6] [µg/mL] | MIC [3, 7] [µg/mL] | MIC [4, 8] [µg/mL] | MIC ([1]; JMI7, read-out: Minimum Inhibitory Concentration (MIC) A. baumannii JMI:7) [µg/mL] | MIC ([2]; SR01358, read-out: Minimum Inhibitory Concentration (MIC) K. pneumoniae SR01358) [µg/mL] | MIC [3] [µg/mL] | MIC ([4]; JMI2346, read-out: Minimum Inhibitory Concentration (MIC) A. baumannii JMI:2346) [µg/mL] |
| --- | --- | --- | --- | --- | --- | --- | --- | --- |
| C[C@@H]1S[C@@H]2[C@H](NC(=O)/C(=N\OC(C)(C)C(=O)[O-])c3csc(N)n3)C(=O)N2C(C(=O)[O-])=C1C[N+]12CCC(CNC(=O)c3c[nH]c4cc(O)c(O)c(Cl)c4c3=O)(CC1)CC2.[Na+] [Compound I-169, (4S,6R,7R)-7-((Z)-2-(2-aminothiazol-4-yl)-2-(((2-carboxypropan-2-yl)oxy)imino)acetamido)-3-((4-((5-chloro-6,7-dihydroxy-4-oxo-1,4-dihydroquinoline-3-carboxamido)methyl)quinuclidin-1-ium-1-yl)methyl)-4-methyl-8-oxo-5-thia-1-azabicyclo[4.2.0]oct-2-ene-2-carboxylate, Sodium salt] | 0.25 | ≤ 0.031 | 0.063 | 0.5 | – | – | – | – |
| C[C@@H]1S[C@@H]2[C@H](NC(=O)/C(=N\OC(C)(C)C(=O)[O-])c3csc(N)n3)C(=O)N2C(C(=O)O)=C1C[N+]12CCC(CNC(=O)c3ccc(O)c(O)c3Cl)(CC1)CC2 [Compound I-40] | 1 (≈ 1.26 µM) | 0.063 (≈ 0.0795 µM) | 0.5 (≈ 0.631 µM) | 4 (≈ 5.05 µM) | – | – | – | – |
| C[C@@H]1S[C@@H]2[C@H](NC(=O)/C(=N\OC(C)(C)C(=O)O)c3csc(N)n3)C(=O)N2C(C(=O)[O-])=C1C[N+]12CCC(Cn3ncc4cc(O)c(O)c(Cl)c4c3=O)(CC1)CC2 [Compound I-125] | 0.5 (≈ 0.612 µM) | ≤ 0.031 | 0.125 (≈ 0.153 µM) | 8 (≈ 9.79 µM) | – | – | – | – |
| C[C@@H]1S[C@@H]2[C@H](NC(=O)/C(=N\OC(C)(C)C(=O)[O-])c3csc(N)n3)C(=O)N2C(C(=O)O)=C1C[N@+]1(C)[C@@H]2CC[C@H]1C[C@@H](NC(=O)C(=O)c1ccc(O)c(O)c1Cl)C2 [Compound I-20] | – | – | – | – | 0.125 (≈ 0.152 µM) | ≤ 0.031 | 0.063 (≈ 0.0768 µM) | 0.5 (≈ 0.61 µM) |
| C[C@@H]1S[C@@H]2[C@H](NC(=O)/C(=N\O[C@@H](CC(=O)[O-])C(=O)[O-])c3csc(N)n3)C(=O)N2C(C(=O)[O-])=C1C[N+]12CCC(CC1)N(C(=O)C(=O)c1cc(O)c(O)c(Cl)c1)CC2.[Na+].[Na+] [Compound I-17] | 4 | ≤ 0.031 | 2 | 16 | – | – | – | – |
| CCn1cc(C(=O)N[C@H]2C[C@H]3CC[C@@H](C2)[N@+]3(C)CC2=C(C(=O)O)N3C(=O)[C@@H](NC(=O)/C(=N\OC(C)(C)C(=O)[O-])c4csc(N)n4)[C@H]3S[C@H]2C)c(=O)c2c(Cl)c(O)c(O)cc21 [Compound I-121] | 0.5 (≈ 0.563 µM) | ≤ 0.031 | 0.063 (≈ 0.071 µM) | 2 (≈ 2.25 µM) | – | – | – | – |
| C[C@@H]1S[C@@H]2[C@H](NC(=O)/C(=N\OC(C)(C)C(=O)[O-])c3csc(N)n3)C(=O)N2C(C(=O)O)=C1C[N+]1(CCNN2C(=O)c3cc(O)c(O)cc3C2=O)CCCC1 [Compound I-26] | 0.5 (≈ 0.647 µM) | ≤ 0.031 | 0.5 (≈ 0.647 µM) | 4 (≈ 5.18 µM) | – | – | – | – |
| C[C@@H]1S[C@@H]2[C@H](NC(=O)/C(=N\OC(C)(C)C(=O)[O-])c3csc(N)n3)C(=O)N2C(C(=O)[O-])=C1C[N+]1(CCNC(=O)C(=O)c2cc(O)c(O)c(Cl)c2)CCCC1.[Na+] [Compound I-8] | 1 | 0.25 | 1 | 16 | – | – | – | – |
| C[C@@H]1S[C@@H]2[C@H](NC(=O)/C(=N\OC(C)(C)C(=O)O)c3csc(N)n3)C(=O)N2C(C(=O)[O-])=C1C[N+]12CCC(Cn3cnc4cc(O)c(O)c(Cl)c4c3=O)(CC1)CC2 [Compound I-161, (4S,6R,7R)-7-((Z)-2-(2-aminothiazol-4-yl)-2-(((2-carboxypropan-2-yl)oxy)imino)acetamido)-3-((4-((5-chloro-6,7-dihydroxy-4-oxoquinazolin-3(4H)-yl)methyl)quinuclidin-1-ium-1-yl)methyl)-4-methyl-8-oxo-5-thia-1-azabicyclo[4.2.0]oct-2-ene-2-carboxylate] | 0.25 (≈ 0.306 µM) | ≤ 0.031 | 0.125 (≈ 0.153 µM) | 4 (≈ 4.89 µM) | – | – | – | – |
